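96-well plates; 48 h exposure; 5 concentrations. Endpoints by linear interpolation between flanking doses. Not reached: highest tested concentration assigned. Abbreviation: GI50, concentration required for 50% inhibition of growth. TGI is the concentration that stops growth completely.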
Experiments:
Test in all cases: NCI tumour cell line growth inhibition, 48 h; in the data active = GI50 below about 0.43 µM; inactive = the rest
786-0 renal = system: 786-0 renal
A498 renal = system: A498 renal
A549 NSCLC = system: A549 NSCLC
ACHN renal = system: ACHN renal
BT-549 breast = system: BT-549 breast
CAKI-1 renal = system: CAKI-1 renal
CCRF-CEM leukemia = system: CCRF-CEM leukemia
COLO 205 colon = system: COLO 205 colon
DU-145 prostate = system: DU-145 prostate
EKVX NSCLC = system: EKVX NSCLC
HCC-2998 colon = system: HCC-2998 colon
HCT-116 colon = system: HCT-116 colon
HCT-15 colon = system: HCT-15 colon
HOP-62 NSCLC = system: HOP-62 NSCLC
HS 578T breast = system: HS 578T breast
HT29 colon = system: HT29 colon
IGROV1 ovarian = system: IGROV1 ovarian
KM12 colon = system: KM12 colon
M14 melanoma = system: M14 melanoma
MALME-3M melanoma = system: MALME-3M melanoma
MCF7 breast = system: MCF7 breast
MDA-MB-231 breast = system: MDA-MB-231 breast
MDA-MB-435 = system: MDA-MB-435
MDA-N = system: MDA-N
NCI-H226 lung = system: NCI-H226 lung
NCI-H23 lung = system: NCI-H23 lung
NCI-H460 lung = system: NCI-H460 lung
NCI-H522 lung = system: NCI-H522 lung
NCI/ADR-RES ovarian = system: NCI/ADR-RES ovarian
OVCAR-3 ovarian = system: OVCAR-3 ovarian
OVCAR-5 ovarian = system: OVCAR-5 ovarian
OVCAR-8 ovarian = system: OVCAR-8 ovarian
RPMI-8226 leukemia = system: RPMI-8226 leukemia
RXF 393 renal = system: RXF 393 renal
SF-268 CNS = system: SF-268 CNS
SF-295 CNS = system: SF-295 CNS
SF-539 CNS = system: SF-539 CNS
SK-MEL-2 melanoma = system: SK-MEL-2 melanoma
SK-MEL-28 melanoma = system: SK-MEL-28 melanoma
SK-MEL-5 melanoma = system: SK-MEL-5 melanoma
SK-OV-3 ovarian = system: SK-OV-3 ovarian
SN12C renal = system: SN12C renal
SNB-19 CNS = system: SNB-19 CNS
SNB-75 CNS = system: SNB-75 CNS
SW-620 colon = system: SW-620 colon
TK-10 renal = system: TK-10 renal
U251 CNS = system: U251 CNS
UACC-257 melanoma = system: UACC-257 melanoma
UACC-62 melanoma = system: UACC-62 melanoma
UO-31 renal = system: UO-31 renal
HL-60(TB) leukemia = system: HL-60(TB) leukemia
HOP-92 NSCLC = system: HOP-92 NSCLC
K-562 leukemia = system: K-562 leukemia
LOX IMVI melanoma = system: LOX IMVI melanoma
MOLT-4 leukemia = system: MOLT-4 leukemia
OVCAR-4 ovarian = system: OVCAR-4 ovarian
PC-3 prostate = system: PC-3 prostate
SR leukemia = system: SR leukemia
T-47D breast = system: T-47D breast

O=C1CCCC2=C1C(c1ccc3c(c1)OCO3)Nc1ccc3ccccc3c12 (stereo not given)
> 100 µM: TGI (786-0 renal) | TGI (A498 renal) | TGI (A549 NSCLC) | TGI (BT-549 breast) | TGI (CAKI-1 renal) | TGI (CCRF-CEM leukemia) | TGI (COLO 205 colon) | TGI (DU-145 prostate) | TGI (EKVX NSCLC) | TGI (HCC-2998 colon) | TGI (HCT-116 colon) | TGI (HCT-15 colon) | TGI (HOP-62 NSCLC) | TGI (HS 578T breast) | TGI (HT29 colon) | TGI (IGROV1 ovarian) | TGI (KM12 colon) | TGI (M14 melanoma) | TGI (MALME-3M melanoma) | TGI (MCF7 breast) | TGI (MDA-MB-231 breast) | TGI (MDA-MB-435) | TGI (MDA-N) | TGI (NCI-H226 lung) | TGI (NCI-H23 lung) | TGI (NCI-H460 lung) | TGI (NCI-H522 lung) | TGI (NCI/ADR-RES ovarian) | TGI (OVCAR-3 ovarian) | TGI (OVCAR-5 ovarian) | TGI (OVCAR-8 ovarian) | TGI (RPMI-8226 leukemia) | TGI (RXF 393 renal) | TGI (SF-268 CNS) | TGI (SF-295 CNS) | TGI (SF-539 CNS) | TGI (SK-MEL-2 melanoma) | TGI (SK-MEL-28 melanoma) | TGI (SK-MEL-5 melanoma) | TGI (SK-OV-3 ovarian) | TGI (SN12C renal) | TGI (SNB-19 CNS) | TGI (SNB-75 CNS) | TGI (SW-620 colon) | TGI (TK-10 renal) | TGI (U251 CNS) | TGI (UACC-257 melanoma) | TGI (UACC-62 melanoma) | TGI (UO-31 renal)
65.7 µM: TGI (ACHN renal)

CCc1ccc(-c2ccc(=O)n(-c3ccc(S(N)(=O)=O)cc3)n2)cc1
> 27.6 µM: TGI (SK-MEL-5 melanoma)
0.497 µM: TGI (SR leukemia)
> 61.4 µM: TGI (A498 renal)
30.5 µM: TGI (HOP-62 NSCLC)
28 µM: TGI (SNB-75 CNS)
29 µM: TGI (U251 CNS)
40.1 µM: TGI (SNB-19 CNS)
21.7 µM: TGI (BT-549 breast)
23.6 µM: TGI (HS 578T breast)
> 21.2 µM: TGI (NCI-H460 lung)
active: GI50 (HL-60(TB) leukemia) 0.365 µM | GI50 (K-562 leukemia) 0.297 µM | GI50 (MALME-3M melanoma) 0.371 µM | GI50 (MDA-MB-435) 0.252 µM | GI50 (NCI-H522 lung) 0.182 µM | GI50 (NCI/ADR-RES ovarian) 0.412 µM | GI50 (SR leukemia) 0.0659 µM
12.2 µM: TGI (NCI/ADR-RES ovarian)
31.5 µM: TGI (RXF 393 renal)
inactive: GI50 (786-0 renal) 11.7 µM | GI50 (A498 renal) 8.86 µM | GI50 (A549 NSCLC) 3.14 µM | GI50 (ACHN renal) > 32.4 µM | GI50 (BT-549 breast) 0.916 µM | GI50 (CAKI-1 renal) 2.6 µM | GI50 (CCRF-CEM leukemia) 1.22 µM | GI50 (COLO 205 colon) 1.95 µM | GI50 (DU-145 prostate) 21.3 µM | GI50 (EKVX NSCLC) 5.65 µM | GI50 (HCT-116 colon) 0.951 µM | GI50 (HCT-15 colon) 0.746 µM | GI50 (HOP-62 NSCLC) 5.62 µM | GI50 (HOP-92 NSCLC) 5.55 µM | GI50 (HS 578T breast) 1.55 µM | GI50 (HT29 colon) 0.484 µM | GI50 (IGROV1 ovarian) 3.32 µM | GI50 (KM12 colon) 0.68 µM | GI50 (LOX IMVI melanoma) 11.7 µM | GI50 (M14 melanoma) 0.764 µM | GI50 (MCF7 breast) 1.46 µM | GI50 (MDA-MB-231 breast) 14.6 µM | GI50 (MOLT-4 leukemia) 0.884 µM | GI50 (NCI-H226 lung) 21.1 µM | GI50 (NCI-H23 lung) 11.9 µM | GI50 (NCI-H460 lung) 0.97 µM | GI50 (OVCAR-3 ovarian) 0.957 µM | GI50 (OVCAR-4 ovarian) > 100 µM | GI50 (OVCAR-5 ovarian) > 64.4 µM | GI50 (OVCAR-8 ovarian) 11 µM | GI50 (PC-3 prostate) 1.35 µM | GI50 (RPMI-8226 leukemia) 0.759 µM | GI50 (RXF 393 renal) 3.89 µM | GI50 (SF-268 CNS) 9.06 µM | GI50 (SF-295 CNS) 0.992 µM | GI50 (SF-539 CNS) 3.15 µM | GI50 (SK-MEL-2 melanoma) 5.04 µM | GI50 (SK-MEL-28 melanoma) 6.73 µM | GI50 (SK-MEL-5 melanoma) 0.659 µM | GI50 (SK-OV-3 ovarian) 4.44 µM | GI50 (SN12C renal) 9.88 µM | GI50 (SNB-19 CNS) 5.21 µM | GI50 (SNB-75 CNS) 2.96 µM | GI50 (SW-620 colon) 0.56 µM | GI50 (T-47D breast) 3.85 µM | GI50 (TK-10 renal) 13.2 µM | GI50 (U251 CNS) 3.36 µM | GI50 (UACC-257 melanoma) > 30.9 µM | GI50 (UACC-62 melanoma) 0.84 µM | GI50 (UO-31 renal) > 100 µM
7.33 µM: TGI (RPMI-8226 leukemia)
> 69.3 µM: TGI (SF-268 CNS)
38.3 µM: TGI (TK-10 renal)
> 90 µM: TGI (MOLT-4 leukemia)
23.1 µM: TGI (MALME-3M melanoma)
32.1 µM: TGI (SF-539 CNS)
38.9 µM: TGI (SK-MEL-2 melanoma)
1.71 µM: TGI (MDA-MB-435)
> 46.6 µM: TGI (K-562 leukemia)
> 20.2 µM: TGI (OVCAR-3 ovarian)
43.1 µM: TGI (HOP-92 NSCLC)
> 77.6 µM: TGI (IGROV1 ovarian)
> 43.7 µM: TGI (HCT-116 colon)
> 22.2 µM: TGI (M14 melanoma)
> 55.6 µM: TGI (COLO 205 colon)
> 79.8 µM: TGI (786-0 renal)
> 43.5 µM: TGI (MCF7 breast)
29.4 µM: TGI (SF-295 CNS)
> 100 µM: TGI (A549 NSCLC) | TGI (ACHN renal) | TGI (CAKI-1 renal) | TGI (CCRF-CEM leukemia) | TGI (DU-145 prostate) | TGI (EKVX NSCLC) | TGI (HCC-2998 colon) | TGI (HCT-15 colon) | TGI (HT29 colon) | TGI (KM12 colon) | TGI (LOX IMVI melanoma) | TGI (MDA-MB-231 breast) | TGI (NCI-H226 lung) | TGI (NCI-H23 lung) | TGI (OVCAR-4 ovarian) | TGI (OVCAR-5 ovarian) | TGI (OVCAR-8 ovarian) | TGI (PC-3 prostate) | TGI (SK-MEL-28 melanoma) | TGI (SK-OV-3 ovarian) | TGI (SN12C renal) | TGI (SW-620 colon) | TGI (T-47D breast) | TGI (UACC-257 melanoma) | TGI (UACC-62 melanoma) | TGI (UO-31 renal)
4.18 µM: TGI (HL-60(TB) leukemia) | TGI (NCI-H522 lung)

Source: PubChem BioAssay (NCI)
